Measured values taken from ChEMBL document CHEMBL1201862, “PubChem BioAssay data set” (2004).
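Briefly, cells in 96-well plates were exposed to five compound concentrations for 48 h, and endpoints were estimated by linear interpolation. GI50 = concentration required for 50% inhibition of growth.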 Activity calls are given as the source filed them. Rule as the data show it: active = GI50 up to about 1.1 µM and inactive = higher.

Legend:
Experiment in all cases: DTP human tumour cell line panel, 48 h
HOP-18 = tested on: HOP-18
SK-MEL-28 = tested on: SK-MEL-28
LOX IMVI = tested on: LOX IMVI
MDA-MB-231 = tested on: MDA-MB-231
HOP-92 = tested on: HOP-92
U-251 = tested on: U-251
SNB-75 = tested on: SNB-75
SK-MEL-2 = tested on: SK-MEL-2
MDA-MB-435 = tested on: MDA-MB-435
IGROV-1 = tested on: IGROV-1
EKVX = tested on: EKVX
TK-10 = tested on: TK-10
HCT-116 = tested on: HCT-116
MOLT-4 = tested on: MOLT-4
K562 = tested on: K562
OVCAR-3 = tested on: OVCAR-3
MCF7 = tested on: MCF7
HCT-15 = tested on: HCT-15
HL-60 = tested on: HL-60
ACHN = tested on: ACHN

| Structure (SMILES) | GI50 (HOP-18) | GI50 (SK-MEL-28) | GI50 (LOX IMVI) | GI50 (MDA-MB-231) | GI50 (HOP-92) | GI50 (U-251) | GI50 (SNB-75) | GI50 (SK-MEL-2) | GI50 (MDA-MB-435) | GI50 (IGROV-1) | GI50 (EKVX) | GI50 (TK-10) | GI50 (HCT-116) | GI50 (MOLT-4) | GI50 (K562) | GI50 (OVCAR-3) | GI50 (MCF7) | GI50 (HCT-15) [µM] | GI50 (HL-60) | GI50 (ACHN) |
| --- | --- | --- | --- | --- | --- | --- | --- | --- | --- | --- | --- | --- | --- | --- | --- | --- | --- | --- | --- | --- |
| O=S1(=O)CCN(c2ccccc2CC(c2c[nH]c3ccccc23)c2c[nH]c3ccccc23)CC1 | 14.4 µM (inactive) | 8.73 µM (inactive) | 3.57 µM (inactive) | 6.92 µM (inactive) | 5.37 µM (inactive) | 7.87 µM (inactive) | 5.02 µM (inactive) | 6.24 µM (inactive) | 5.62 µM (inactive) | 6.93 µM (inactive) | 8.49 µM (inactive) | 5.32 µM (inactive) | 4.47 µM (inactive) | 2.33 µM (inactive) | 3.08 µM (inactive) | 5.53 µM (inactive) | 3.66 µM (inactive) | 4.94 | 1.12 µM (active) | 5.04 µM (inactive) |
| c1cc2n(n1)CCN2 | 4030 µM (inactive) | 7740 µM (inactive) | 662 µM (inactive) | > 1500 µM (inactive) | 1590 µM (inactive) | 706 µM (inactive) | 3400 µM (inactive) | 6460 µM (inactive) | 3940 µM (inactive) | 7380 µM (inactive) | 1770 µM (inactive) | > 1490 µM (inactive) | 1950 µM (inactive) | 348 µM (inactive) | 2000 µM (inactive) | 2280 µM (inactive) | 828 µM (inactive) | 2140 | 238 µM (inactive) | 151 µM (inactive) |
